Four compounds from ChEMBL document CHEMBL3526148, “Cerebrospinal fluid can be used as a surrogate to assess brain exposures of breast cancer resistance protein and P-glycoprotein substrates” (Drug Metab Dispos, 2012) can be followed below.

Common to all, as to type: ADME, cell-based
Series [1] in a line: Inhibition of P-gp-mediated [3H]-digoxin transport in human Caco2 cells at 10 to 50 uM after 30 mins. As to conditions: caco-2, 0.5 h; call rule not given here.
A short description of series [2]: Apparent permeability from basolateral to apical side in human Caco2 cells at 5 uM after 2 hrs. Particulars: Caco-2.
The nature of series [3]: Apparent permeability from apical to basolateral side in human Caco2 cells at 5 uM after 2 hrs. As to conditions: Caco-2.
The nature of series [4]: Inhibition of P-gp-mediated [3H]-digoxin transport in human Caco2 cells at 3 uM after 30 mins. Particulars: caco-2, 0.5 h.
The target in series [5] is T1, Broad substrate specificity ATP-binding cassette transporter ABCG2 (Homo sapiens, UniProt Q9UNQ0).
T1 sequence (Q9UNQ0 whole entry): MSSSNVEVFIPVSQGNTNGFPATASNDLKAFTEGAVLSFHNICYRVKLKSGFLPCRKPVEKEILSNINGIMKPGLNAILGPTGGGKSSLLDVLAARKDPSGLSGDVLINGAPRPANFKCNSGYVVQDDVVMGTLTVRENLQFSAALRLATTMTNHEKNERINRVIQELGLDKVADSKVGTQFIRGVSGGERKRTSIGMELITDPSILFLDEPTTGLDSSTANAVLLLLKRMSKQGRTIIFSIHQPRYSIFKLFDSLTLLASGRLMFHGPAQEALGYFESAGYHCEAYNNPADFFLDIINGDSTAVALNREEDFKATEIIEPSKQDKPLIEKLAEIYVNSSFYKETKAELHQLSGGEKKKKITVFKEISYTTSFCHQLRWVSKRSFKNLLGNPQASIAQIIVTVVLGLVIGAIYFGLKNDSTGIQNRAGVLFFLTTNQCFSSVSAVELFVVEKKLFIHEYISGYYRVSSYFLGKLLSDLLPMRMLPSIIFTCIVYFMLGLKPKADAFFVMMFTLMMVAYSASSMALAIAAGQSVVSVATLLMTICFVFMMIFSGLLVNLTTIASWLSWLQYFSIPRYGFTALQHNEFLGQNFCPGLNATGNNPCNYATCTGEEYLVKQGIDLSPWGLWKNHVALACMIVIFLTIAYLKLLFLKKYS
Nature of the series: Inhibition of BCRP-mediated [3H]estrone-3-sulfate transport in human Caco2 cells at 3 uM after 30 mins. Particulars: caco-2, 0.5 h.

Series [6] in a line: Inhibition of P-gp-mediated [3H]-digoxin transport in human Caco2 cells at 1 uM after 30 mins. Particulars: caco-2, 0.5 h.
Series [7] addresses T1, Broad substrate specificity ATP-binding cassette transporter ABCG2. Nature of the series: Inhibition of BCRP-mediated [3H]estrone-3-sulfate transport in human Caco2 cells at 1 uM after 30 mins. Particulars: caco-2, 0.5 h.

Each structure is given as a SMILES string.

As to `O=C1CN(/N=C/c2ccc(-c3ccc([N+](=O)[O-])cc3)o2)C(O)=N1` [DANTROLENE], the “inhibition (INH)” value in series [1] is listed as “Not Active”. For the same compound, the Papp B→A at 2 h, 5 µM in series [2] came out at 9.8 ×10⁻⁶ cm/s. Besides, the Papp A→B at 2 h, 5 µM in series [3] was found to be 2 ×10⁻⁶ cm/s.
Take `COc1ccc2c3c([nH]c2c1)[C@H](CC(C)C)N1C(=O)[C@H](CCC(=O)OC(C)(C)C)NC(=O)[C@@H]1C3`: the “inhibition (INH)” value in series [4] was “Not Active”.
For `COc1cc2c(cc1OC)CN(CCc1ccc(NC(=O)c3cccc4c(=O)c5cccc(OC)c5[nH]c34)cc1)CC2`, the “inhibition (INH)” value in series [4] and in series [5] was “Active” each time.
On to `C/C=C/C[C@@H](C)C(=O)[C@H]1C(=O)N[C@@H](C(C)C)C(=O)N(C)CC(=O)N(C)[C@@H](CC(C)C)C(=O)N[C@@H](C(C)C)C(=O)N(C)[C@@H](CC(C)C)C(=O)N[C@@H](C)C(=O)N[C@H](C)C(=O)N(C)[C@@H](CC(C)C)C(=O)N(C)[C@@H](CC(C)C)C(=O)N(C)[C@@H](C(C)C)C(=O)N1C` [VALSPODAR], for which the figures for the “inhibition (INH)” value in series [6] and in series [7] were “Active” and “Not Active”, respectively.
